Experimental data as given in patent publication US20240308996A1, “PYRIDOPYRIDINES AND DERIVATIVES THEREOF AS SELECTIVE KINASE INHIBITORS” (University of Sharjah, priority 2023, published 2024).
Blank lines part the entries; values can stand above or below the molecule they belong to.

Columns and labels:
Hep3B = test: MTT assay, Hep3B HCC cell line; type: cell-based; settings: Homo sapiens, 48 h, mean of triplicate assays ± SEM
Method: (§1) Two HCC cell lines (Hep3B and HepG2) were used for screening the antiproliferative activity of the synthesized compounds. The cell lines were obtained from the European Collection of Cell Cultures (ECACC, UK) and maintained in Dulbecco's Modified Eagle Medium (DMEM: Sigma-Aldrich) supplemented with 10% fetal bovine serum (FBS) and 1% penicillin/streptomycin and incubated at 37° C. in a 5% CO2 air atmosphere. In addition, WI-38 normal cell line was used to investigate the safety of these compounds.
(§2) MTT assay was conducted to calculate the IC50 of the compounds following the reported procedure . Briefly, the cells were seeded in 96-well tissue culture plates with a density of 5×10^4 cells/well and incubated overnight at 37° C. in a 5% CO2 air atmosphere. […] DMSO was used as a negative control. After 48 h, the media were aspirated, and replaced with media containing 0.5 mg/mL of MTT tetrazolium dye (Sigma-Aldrich) for 2 h at 37° C. Finally, the media were removed and 200 μL of DMSO was added to solubilize the formazan crystals. Absorbance was then measured at 570 nm using Varioskan Flash multimode plate reader (Thermo Scientific, Massachusetts, USA).

HepG2 = test: MTT assay, HepG2 HCC cell line; type: cell-based; settings: Homo sapiens, 48 h, mean of triplicate assays ± SEM
Method: as §1, §2

[1] = system: hepatocellular carcinoma cell lines; test: Screening against HCC cell lines; type: cell-based
Method: The target compounds were tested against hepatocellular carcinoma cell lines. Compounds 1j. 13a. 13b. 13c. […] The mean inhibition percentage values are illustrated in Table 9.
as §1
MTT assay was conducted to calculate the IC50 of the compounds following the reported procedure . Briefly, the cells were seeded in 96-well tissue culture plates with a density of 5×10^4 cells/well and incubated overnight at 37° C. in a 5% CO2 air atmosphere. After that, cells were treated with the newly synthesized compounds or sorafenib as a positive control. DMSO was used as a negative control. After 48 h, the media were aspirated, and replaced with media containing 0.5 mg/mL of MTT tetrazolium dye (Sigma-Aldrich) for 2 h at 37° C. Finally, the media were removed and 200 μL of DMSO was added to solubilize the formazan crystals. Absorbance was then measured at 570 nm using Varioskan Flash multimode plate reader (Thermo Scientific, Massachusetts, USA).

MCF7 = test: NCI-60 cell line panel: MCF7; type: cell-based; settings: Breast Cancer, total growth inhibition
Method: (§3) It was carried out at the NCI, Bethesda, MD, USA, utilizing their standard protocol.

OVCAR-5 = test: NCI-60 cell line panel: OVCAR-5; type: cell-based; settings: Ovarian Cancer, total growth inhibition
Method: as §3

panel of 50 kinases = test: 50-kinase panel; type: biochemical
M14 = test: NCI-60 cell line panel: M14; type: cell-based; settings: Melanoma
Method: as §3

HCT-15 = test: NCI-60 cell line panel: HCT-15; type: cell-based; settings: Colon Cancer, total growth inhibition
Method: as §3

786-0 = test: NCI-60 cell line panel: 786-0; type: cell-based; settings: Renal Cancer, total growth inhibition
Method: as §3

TK-10 = test: NCI-60 cell line panel: TK-10; type: cell-based; settings: Renal Cancer
Method: as §3

CCRF-CEM = test: NCI-60 cell line panel: CCRF-CEM; type: cell-based; settings: Leukemia
Method: as §3

SK-OV-3 = test: NCI-60 cell line panel: SK-OV-3; type: cell-based; settings: Ovarian Cancer, total growth inhibition
Method: as §3

SNB-75 = test: NCI-60 cell line panel: SNB-75; type: cell-based; set-up: TGI: unit not given here; settings: CNS Cancer, total growth inhibition
Method: as §3

SR = test: NCI-60 cell line panel: SR; type: cell-based; settings: Leukemia, total growth inhibition
Method: as §3

NCI-H522 = test: NCI-60 cell line panel: NCI-H522; type: cell-based; set-up: TGI: unit not given here; settings: Non-Small Cell Lung Cancer
Method: as §3

SW-620 = test: NCI-60 cell line panel: SW-620; type: cell-based; settings: Colon Cancer, total growth inhibition
Method: as §3

MDA-MB-468 = test: NCI-60 cell line panel: MDA-MB-468; type: cell-based; settings: Breast Cancer, total growth inhibition
Method: as §3

COLO 205 = test: NCI-60 cell line panel: COLO 205; type: cell-based; set-up: TGI: unit not given here; settings: Colon Cancer
Method: as §3

SK-MEL-28 = test: NCI-60 cell line panel: SK-MEL-28; type: cell-based; settings: Melanoma, total growth inhibition
Method: as §3

IGROV1 = test: NCI-60 cell line panel: IGROV1; type: cell-based; settings: Ovarian Cancer, total growth inhibition
Method: as §3

EKVX = test: NCI-60 cell line panel: EKVX; type: cell-based; settings: Non-Small Cell Lung Cancer, total growth inhibition, in µM (unit assumed)
Method: as §3

SN12C = test: NCI-60 cell line panel: SN12C; type: cell-based; settings: Renal Cancer, total growth inhibition
Method: as §3

SNB-19 = test: NCI-60 cell line panel: SNB-19; type: cell-based; settings: CNS Cancer, total growth inhibition
Method: as §3

BT-549 = test: NCI-60 cell line panel: BT-549; type: cell-based; settings: Breast Cancer, total growth inhibition
Method: as §3

MOLT-4 = test: NCI-60 cell line panel: MOLT-4; type: cell-based; set-up: TGI: unit not given here; settings: Leukemia, total growth inhibition
Method: as §3

U251 = test: NCI-60 cell line panel: U251; type: cell-based; set-up: TGI: unit not given here
Method: as §3

MDA-MB-231/ATCC = test: NCI-60 cell line panel: MDA-MB-231/ATCC; type: cell-based; settings: Breast Cancer
Method: as §3

PC-3 = test: NCI-60 cell line panel: PC-3; type: cell-based; settings: Prostate Cancer
Method: as §3

OVCAR-8 = test: NCI-60 cell line panel: OVCAR-8; type: cell-based; settings: Ovarian Cancer, total growth inhibition, in µM (unit assumed)
Method: as §3

A549/ATCC = test: NCI-60 cell line panel: A549/ATCC; type: cell-based; settings: Non-Small Cell Lung Cancer, total growth inhibition
Method: as §3

OVCAR-4 = test: NCI-60 cell line panel: OVCAR-4; type: cell-based; settings: Ovarian Cancer, total growth inhibition, in µM (unit assumed)
Method: as §3

UO-31 = test: NCI-60 cell line panel: UO-31; type: cell-based; set-up: TGI: unit not given here; settings: Renal Cancer, total growth inhibition
Method: as §3

NCI-H322M = test: NCI-60 cell line panel: NCI-H322M; type: cell-based; settings: Non-Small Cell Lung Cancer, total growth inhibition
Method: as §3

NCI-H23 = test: NCI-60 cell line panel: NCI-H23; type: cell-based; settings: Non-Small Cell Lung Cancer
Method: as §3

NCI/ADR-RES = test: NCI-60 cell line panel: NCI/ADR-RES; type: cell-based; set-up: TGI: unit not given here; settings: Ovarian Cancer, total growth inhibition
Method: as §3

SK-MEL-2 = test: NCI-60 cell line panel: SK-MEL-2; type: cell-based; set-up: TGI: unit not given here; settings: Melanoma
Method: as §3

SF-268 = test: NCI-60 cell line panel: SF-268; type: cell-based; settings: CNS Cancer, total growth inhibition
Method: as §3

DU-145 = test: NCI-60 cell line panel: DU-145; type: cell-based; settings: Prostate Cancer, total growth inhibition
Method: as §3

HS 578T = test: NCI-60 cell line panel: HS 578T; type: cell-based; settings: Breast Cancer, HS 578T; total growth inhibition
Method: as §3

MALME-3M = test: NCI-60 cell line panel: MALME-3M; type: cell-based; settings: Melanoma
Method: as §3

NCI-H460 = test: NCI-60 cell line panel: NCI-H460; type: cell-based; settings: Non-Small Cell Lung Cancer, total growth inhibition
Method: as §3

CAKI-1 = test: NCI-60 cell line panel: CAKI-1; type: cell-based; set-up: TGI: unit not given here; settings: Renal Cancer, total growth inhibition
Method: as §3

ACHN = test: NCI-60 cell line panel: ACHN; type: cell-based; settings: Renal Cancer, total growth inhibition
Method: as §3

A498 = test: NCI-60 cell line panel: A498; type: cell-based; settings: Renal Cancer, total growth inhibition
Method: as §3

NCI-H226 = test: NCI-60 cell line panel: NCI-H226; type: cell-based; settings: Non-Small Cell Lung Cancer
Method: as §3

RXF 393 = test: NCI-60 cell line panel: RXF 393; type: cell-based; settings: Renal Cancer, total growth inhibition
Method: as §3

HT29 = test: NCI-60 cell line panel: HT29; type: cell-based
Method: as §3

UACC-257 = test: NCI-60 cell line panel: UACC-257; type: cell-based; settings: Melanoma
Method: as §3

OVCAR-3 = test: NCI-60 cell line panel: OVCAR-3; type: cell-based; settings: Ovarian Cancer, total growth inhibition
Method: as §3

HOP-62 = test: NCI-60 cell line panel: HOP-62; type: cell-based; settings: Non-Small Cell Lung Cancer
Method: as §3

IC50 (Hep3B): 3.87 ± 0.13 µM
IC50 (HepG2): 3.68 ± 0.22 µM
SMILES: O=C(Nc1ccc(-c2cc(C(=O)Nc3ccccn3)c3ncccc3n2)cc1)Nc1ccc(F)c(C(F)(F)F)c1 [Compound 1j, 2-(4-(3-(4-Fluoro-3-(trifluoromethyl)phenyl)ureido)phenyl)-N-(pyridin-2-yl)-1,5-naphthyridine-4-carboxamide]
inhibition activity against hepatocellular carcinoma cell lines compared with sorafenib [1]: higher inhibition activity than sorafenib

IC50 (Hep3B): 1.89 ± 0.18 µM
IC50 (HepG2): 1.27 ± 0.14 µM
SMILES: CNC(=O)c1cc(-c2ccc(NC(=O)Nc3ccc(N4CCOCC4)c(C(F)(F)F)c3)cc2)nc2cccnc12 [Compound 13a, N-Methyl-2-(4-(3-(4-morpholino-3-(trifluoromethyl)phenyl)ureido)phenyl)-1,5-naphthyridine-4-carboxamide]
inhibition activity against hepatocellular carcinoma cell lines compared with sorafenib [1]: higher inhibition activity than sorafenib

IC50 (Hep3B): 6.56 ± 0.31 µM
IC50 (HepG2): 5.74 ± 0.2 µM
SMILES: CNC(=O)c1cc(-c2ccc(NC(=S)Nc3cc(C(F)(F)F)cc(C(F)(F)F)c3)cc2)nc2cccnc12 [Compound 1m, 2-(4-(3-(3,5-Bis(trifluoromethyl)phenyl)thioureido)phenyl)-N-methyl-1,5-naphthyridine-4-carboxamide]
inhibition activity against hepatocellular carcinoma cell lines compared with sorafenib [1]: inhibition activity comparable to sorafenib

SMILES: CNC(=O)c1cc(Oc2ccc(NC(=O)Nc3ccc(Cl)c(C(F)(F)F)c3)cc2)ccn1 [Sorafenib, reference compound]
TGI (MCF7): 7.94 µM
TGI (OVCAR-5): 6.31 µM
number of kinases inhibited (more than 50% inhibition) (panel of 50 kinases): 22 kinases
IC50 (M14; Homo sapiens): 2 µM
TGI (M14; total growth inhibition): 3.16 µM
TGI (HCT-15): 3.16 µM
TGI (786-0): 5.01 µM
IC50 (TK-10; Homo sapiens): 3.98 µM
TGI (TK-10; total growth inhibition): 10 µM
IC50 (CCRF-CEM; Homo sapiens): 2 µM
TGI (CCRF-CEM; total growth inhibition): 5.01 µM
TGI (SK-OV-3): 5.01 µM
TGI (SNB-75): 3.98
TGI (SR): 63.1 µM
IC50 (NCI-H522; Homo sapiens): 2 µM
TGI (NCI-H522; total growth inhibition): 5.01
TGI (SW-620): 5.01 µM
TGI (MDA-MB-468): 7.94 µM
TGI (COLO 205; total growth inhibition): 3.16
IC50 (COLO 205; Homo sapiens): 2 µM
TGI (SK-MEL-28): 2.51 µM
TGI (IGROV1): 10 µM
TGI (EKVX): 19.95
TGI (SN12C): 3.16 µM
TGI (SNB-19): 3.98 µM
TGI (BT-549): 3.98 µM
TGI (MOLT-4): 100
TGI (U251; CNS Cancer, total growth inhibition): 3.16
IC50 (U251; Homo sapiens, U-251, CNS Cancer): 2 µM
TGI (MDA-MB-231/ATCC; total growth inhibition): 3.16 µM
IC50 (MDA-MB-231/ATCC; Homo sapiens): 1.26 µM
IC50 (PC-3; Homo sapiens): 2 µM
TGI (PC-3; total growth inhibition): 5.01 µM
TGI (OVCAR-8): 12.59
TGI (A549/ATCC): 7.94 µM
TGI (OVCAR-4): 25.12
TGI (UO-31): 6.31
TGI (NCI-H322M): 5.01 µM
IC50 (NCI-H23; Homo sapiens): 2 µM
TGI (NCI-H23; total growth inhibition): 5.01 µM
TGI (NCI/ADR-RES): 7.94
IC50 (SK-MEL-2; Homo sapiens): 2 µM
TGI (SK-MEL-2; total growth inhibition): 6.31
TGI (SF-268): 3.98 µM
TGI (DU-145): 7.94 µM
TGI (HS 578T): 3.98 µM
IC50 (MALME-3M; Homo sapiens): 2 µM
TGI (MALME-3M; total growth inhibition, in µM (unit assumed)): 39.81
TGI (NCI-H460): 5.01 µM
TGI (CAKI-1): 12.59
TGI (ACHN): 10 µM
TGI (A498): 3.16 µM
IC50 (NCI-H226; Homo sapiens): 2 µM
TGI (NCI-H226; total growth inhibition): 3.16 µM
TGI (RXF 393): 5.01 µM
TGI (HT29; Colon Cancer, total growth inhibition): 5.01 µM
IC50 (HT29; Homo sapiens, HT-29, Colon Cancer): 2 µM
IC50 (UACC-257; Homo sapiens): 2 µM
TGI (UACC-257; total growth inhibition): 5.01 µM
TGI (OVCAR-3): 3.98 µM
IC50 (HOP-62; Homo sapiens): 2 µM
TGI (HOP-62; total growth inhibition): 3.16 µM
